According to PubChem BioAssay (NCI):
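Growth conditions: 96-well plates. Treatment: test compound, 48 hours, 5 concentrations. Analysis: linear interpolation between bracketing concentrations; unreached endpoints set to highest concentration. Definition used: TGI = concentration required for complete inhibition of growth.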

How the values were obtained:
Assay in all cases: NCI-60 cell line screen, 48 h
COLO 205 colon = system: COLO 205 colon
OVCAR-4 ovarian = system: OVCAR-4 ovarian
IGROV1 ovarian = system: IGROV1 ovarian
RPMI-8226 leukemia = system: RPMI-8226 leukemia
SN12C renal = system: SN12C renal
SNB-75 CNS = system: SNB-75 CNS
TK-10 renal = system: TK-10 renal
MOLT-4 leukemia = system: MOLT-4 leukemia
U251 CNS = system: U251 CNS
SK-MEL-28 melanoma = system: SK-MEL-28 melanoma
NCI-H226 lung = system: NCI-H226 lung
LOX IMVI melanoma = system: LOX IMVI melanoma
SR leukemia = system: SR leukemia
SK-OV-3 ovarian = system: SK-OV-3 ovarian
HL-60(TB) leukemia = system: HL-60(TB) leukemia
HS 578T breast = system: HS 578T breast
OVCAR-3 ovarian = system: OVCAR-3 ovarian
SW-620 colon = system: SW-620 colon
786-0 renal = system: 786-0 renal
M14 melanoma = system: M14 melanoma
A549 NSCLC = system: A549 NSCLC
OVCAR-8 ovarian = system: OVCAR-8 ovarian
NCI-H460 lung = system: NCI-H460 lung
SK-MEL-5 melanoma = system: SK-MEL-5 melanoma
T-47D breast = system: T-47D breast
ACHN renal = system: ACHN renal
UACC-62 melanoma = system: UACC-62 melanoma
SF-539 CNS = system: SF-539 CNS
EKVX NSCLC = system: EKVX NSCLC
UO-31 renal = system: UO-31 renal
RXF 393 renal = system: RXF 393 renal
NCI-H522 lung = system: NCI-H522 lung
CCRF-CEM leukemia = system: CCRF-CEM leukemia
K-562 leukemia = system: K-562 leukemia
SF-295 CNS = system: SF-295 CNS
NCI-H23 lung = system: NCI-H23 lung
HT29 colon = system: HT29 colon
HOP-92 NSCLC = system: HOP-92 NSCLC
HCT-116 colon = system: HCT-116 colon
HCT-15 colon = system: HCT-15 colon
MDA-N = system: MDA-N
PC-3 prostate = system: PC-3 prostate
HOP-62 NSCLC = system: HOP-62 NSCLC
MDA-MB-231 breast = system: MDA-MB-231 breast
DU-145 prostate = system: DU-145 prostate
KM12 colon = system: KM12 colon
SF-268 CNS = system: SF-268 CNS
A498 renal = system: A498 renal
SNB-19 CNS = system: SNB-19 CNS
UACC-257 melanoma = system: UACC-257 melanoma
NCI/ADR-RES ovarian = system: NCI/ADR-RES ovarian
HCC-2998 colon = system: HCC-2998 colon
MCF7 breast = system: MCF7 breast
MALME-3M melanoma = system: MALME-3M melanoma
CAKI-1 renal = system: CAKI-1 renal
SK-MEL-2 melanoma = system: SK-MEL-2 melanoma

Measured: TGI

C(=C\C(SCc1ccccc1)SCc1ccccc1)/c1ccccc1
> 10 µM: all assays above
